Assay results reported in US20090197897A1, “Novel Oxadiazole Derivatives and Their Use as Positive Allosteric Modulators of Metabotropic Glutamate Receptors” (Addex Pharma SA, priority 2005, published 2009).
Counter-ions that a name gives are not always drawn.

Biological target: T1, rat mGluR5 (Rattus norvegicus, UniProt P31424)
T1 construct: expressed in transfected cells
Assay: mGluR5 assay on HEK-expressing rat mGluR5 (fluorescent cell based Ca2+ mobilization assay)
Conditions: HEK-293 cells stably expressing rat mGluR5; no co-addition of glutamate; mean of at least three independent experiments in duplicate; read-out: Ca++ Flux (mean EC50)
Experimental: mGluR5 Assay on HEK-Expressing Rat mGluR5
Positive functional expression of HEK-293 cells stably expressing rat mGluR5 receptor was determined by measuring intracellular Ca^2+ changes using a Fluorometric Imaging Plate Reader (FLIPR, Molecular Devices, Sunnyvale, Calif.) in response to glutamate or selective known mGluR5 agonists and antagonists. Rat mGluR5 RT-PCR products in HEK-293 cells were sequenced and found 100% identical to rat mGluR5 Genbank reference sequence (NM_017012). HEK-293 cells expressing rmGluR5 were maintained in media containing DMEM, dialyzed Fetal Bovine Serum (10%), Glutamax™ (2 mM), Penicillin (100 units/ml), Streptomycin (100 μg/ml), Geneticin (100 μg/ml) and Hygromycin-B (40 μg/ml) at 37° C./5% CO2.
After one day of incubation, cells were washed with assay buffer containing: 142 mM NaCl, 6 mM KCl, 1 mM […], 1 mM CaCl2, 20 mM HEPES, 1 g/L glucose, 0.125 mM sulfinpyrazone, pH 7.4. After 60 min of loading with 4 uM Fluo-4 (TefLabs, Austin, Tex.), the cells were washed three times with 50 μl of PBS Buffer and resuspended in 45 μl of assay Buffer. The plates were then transferred to a Fluorometric Imaging Plate Reader (FLIPR, Molecular Devices, Sunnyvale, Calif.) for the assessment of intracellular calcium flux. After monitoring the baseline fluorescence for 10 seconds, increasing concentrations of representative compound (from 0.01 to 60 μM) of the present invention diluted in Assay Buffer (15 μl of 4× dilutions) was added to the cell. The final DMSO concentration in the assay was 0.3%. In each experiment, fluorescence was then monitored as a function of time for 3 minutes and the data analyzed using Microsoft Excel and GraphPad Prism. Each data point was also measured two times.
Under these experimental conditions, this HEK-rat mGluR5 cell line is able to directly detect positive allosteric modulators without the need of co-addition of glutamate or mGluR5 agonist.
The concentration-response curves of representative compounds of the present invention were generated using the Prism GraphPad software (Graph Pad Inc, San Diego, USA). The curves were fitted to a four-parameter logistic equation:
(Y=Bottom+(Top−Bottom)/(1+10̂((Log EC50−X)*Hill Slope)
allowing determination of EC50 values.
The Table 1 below represents the mean EC50 obtained from at least three independent experiments of selected molecules performed in duplicate.

T1 sequence (P31424 21-1171 isoform P31424-2 limits assumed): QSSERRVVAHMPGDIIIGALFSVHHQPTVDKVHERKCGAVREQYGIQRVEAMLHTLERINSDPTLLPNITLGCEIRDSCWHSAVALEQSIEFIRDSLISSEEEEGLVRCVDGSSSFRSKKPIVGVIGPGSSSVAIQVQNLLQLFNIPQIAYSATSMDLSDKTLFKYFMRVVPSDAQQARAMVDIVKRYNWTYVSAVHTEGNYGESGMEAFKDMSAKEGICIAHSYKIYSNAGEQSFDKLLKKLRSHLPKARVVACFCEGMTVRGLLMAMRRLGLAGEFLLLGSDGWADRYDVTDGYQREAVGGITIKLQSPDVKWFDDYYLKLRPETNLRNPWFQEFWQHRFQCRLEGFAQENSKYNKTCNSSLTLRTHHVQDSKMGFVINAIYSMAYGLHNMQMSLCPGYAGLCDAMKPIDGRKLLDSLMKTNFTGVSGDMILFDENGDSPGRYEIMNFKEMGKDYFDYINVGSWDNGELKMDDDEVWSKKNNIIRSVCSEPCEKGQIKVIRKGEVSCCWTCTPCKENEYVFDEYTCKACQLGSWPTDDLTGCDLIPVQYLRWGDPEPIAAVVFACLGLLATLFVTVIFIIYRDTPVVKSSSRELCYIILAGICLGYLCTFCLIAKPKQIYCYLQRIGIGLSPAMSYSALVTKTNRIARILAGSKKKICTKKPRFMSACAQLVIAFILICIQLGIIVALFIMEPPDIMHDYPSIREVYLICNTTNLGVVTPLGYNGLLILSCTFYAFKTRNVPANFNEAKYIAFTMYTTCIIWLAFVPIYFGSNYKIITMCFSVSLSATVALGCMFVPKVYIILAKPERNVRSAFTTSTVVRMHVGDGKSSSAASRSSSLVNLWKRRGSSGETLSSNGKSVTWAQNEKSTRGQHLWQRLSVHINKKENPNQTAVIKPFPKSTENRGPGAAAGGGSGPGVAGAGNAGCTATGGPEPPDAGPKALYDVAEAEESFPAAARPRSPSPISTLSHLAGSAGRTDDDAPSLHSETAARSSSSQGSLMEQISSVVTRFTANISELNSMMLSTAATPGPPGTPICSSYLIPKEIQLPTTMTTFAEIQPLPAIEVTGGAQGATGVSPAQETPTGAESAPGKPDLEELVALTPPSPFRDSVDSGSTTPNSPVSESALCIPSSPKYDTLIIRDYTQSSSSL

SMILES | EC50 [µM]
O=C(c1ccc(F)cc1F)N1CCC[C@H](c2nc(-c3ccc(F)cc3F)no2)C1 [Example 69, (2,4-Difluoro-phenyl)-{(S)-3-[3-(2,4-difluoro-phenyl)-[1,2,4]oxadiazol-5-yl]-piperidin-1-yl}-methanone] | 1 to 10
CCc1ccccc1C(=O)N1CCC[C@H](c2nc(-c3ccc(F)cc3)no2)C1 [Example 20, (2-Ethyl-phenyl)-{3-[3-(4-fluoro-phenyl)-[1,2,4]oxadiazol-5-yl]-piperidin-1-yl}-methanone] | 1 to 10
O=C(c1cccc(COc2ccccc2)c1)N1CCC[C@H](c2nc(-c3ccc(F)cc3)no2)C1 [Example 6, {(S)-3-[3-(4-Fluoro-phenyl)-[1,2,4]oxadiazol-5-yl]-piperidin-1-yl}-(3-phenoxymethyl-phenyl)-methanone] | > 10
O=C(c1ccc(OC(F)(F)F)cc1)N1CCC[C@H](c2nc(-c3ccc(F)cc3)no2)C1 [Example 76, {(S)-3-[3-(4-Fluoro-phenyl)-[1,2,4]oxadiazol-5-yl]-piperidin-1-yl}-(4-trifluoromethoxy-phenyl)-methanone] | 1 to 10
Cc1ccc(-c2noc([C@H]3CCCN(C(=O)c4ccc(F)cc4)C3)n2)o1 [Example 34, (4-Fluoro-phenyl)-{(S)-3-[3-(5-methyl-furan-2-yl)-[1,2,4]oxadiazol-5-yl]-piperidin-1-yl}-methanone] | 1 to 10
O=C(C1CCc2cc(F)ccc21)N1CCC[C@H](c2nc(-c3ccc(F)cc3)no2)C1 (stereo partly drawn) [Example 8, (5-Fluoro-indan-1-yl)-{(S)-3-[3-(4-fluoro-phenyl)-[1,2,4]oxadiazol-5-yl]-piperidin-1-yl}-methanone] | > 10
O=C(c1ccc(F)cc1)N1CCC[C@H](c2nc(-c3cccs3)no2)C1 [Example 37, (4-Fluoro-phenyl)-[(S)-3-(3-thiophen-2-yl-[1,2,4]oxadiazol-5-yl)-piperidin-1-yl]-methanone] | < 1
Cc1nocc1C(=O)N1CCC[C@H](c2nc(-c3ccc(F)cc3)no2)C1 [Example 4, (S)-{3-[3-(4-Fluoro-phenyl)-[1,2,4]oxadiazol-5-yl]-piperidin-1-yl}-(3-methyl-isoxazol-4-yl)-methanone] | 1 to 10
Cc1cc(F)ccc1C(=O)N1CCC[C@H](c2nc(-c3ccc(F)cc3F)no2)C1 [Example 67, {(S)-3-[3-(2,4-Difluoro-phenyl)-[1,2,4]oxadiazol-5-yl]-piperidin-1-yl}-(4-fluoro-2-methyl-phenyl)-methanone] | 1 to 10
Cc1nc(C)c(C(=O)N2CCC[C@H](c3nc(-c4ccc(F)cc4)no3)C2)s1 [Example 18, (2,4-Dimethyl-thiazol-5-yl)-{(S)-3-[3-(4-fluoro-phenyl)-[1,2,4]oxadiazol-5-yl]-piperidin-1-yl}-methanone] | 1 to 10
O=C(c1ccc(F)cc1F)N1CCC[C@H](c2nc(-c3ccccn3)no2)C1 [Example 70, (2,4-Difluoro-phenyl)-[(S)-3-(3-pyridin-2-yl-[1,2,4]oxadiazol-5-yl)-piperidin-1-yl]-methanone] | 1 to 10
Cc1c(C(=O)N2CCC[C@H](c3nc(-c4ccc(F)cc4)no3)C2)cnn1C [Example 21, (1,5-Dimethyl-1H-pyrazol-4-yl)-{(S)-3-[3-(4-fluoro-phenyl)-[1,2,4]oxadiazol-5-yl]-piperidin-1-yl}-methanone] | 1 to 10
Cc1oncc1C(=O)N1CCC[C@H](c2nc(-c3ccccc3F)no2)C1 [Example 61, {(S)-3-[3-(2-Fluoro-phenyl)-[1,2,4]oxadiazol-5-yl]-piperidin-1-yl}-(5-methyl-isoxazol-4-yl)-methanone] | < 1
Cc1oncc1C(=O)N1CCC[C@H](c2nc(-c3ccccc3)no2)C1 [Example 56, (5-Methyl-isoxazol-4-yl)-[(S)-3-(3-phenyl-[1,2,4]oxadiazol-5-yl)-piperidin-1-yl]-methanone] | < 1
Cc1ncc(-c2noc([C@H]3CCCN(C(=O)c4ccc(F)c(F)c4)C3)n2)s1 [Example 75, (3,4-Difluoro-phenyl)-{(S)-3-[3-(2-methyl-thiazol-5-yl)-[1,2,4]oxadiazol-5-yl]-piperidin-1-yl}-methanone] | 1 to 10
Cc1cc(F)ccc1C(=O)N1CCC[C@H](c2nc(-c3ccccc3)no2)C1 [Example 63, (4-Fluoro-2-methyl-phenyl)-[(S)-3-(3-phenyl-[1,2,4]oxadiazol-5-yl)-piperidin-1-yl]-methanone] | 1 to 10
CCc1oncc1C(=O)N1CCC[C@H](c2nc(-c3ccc(F)cc3)no2)C1 [Example 46, (5-Ethyl-isoxazol-4-yl)-{(S)-3-[3-(4-fluoro-phenyl)-[1,2,4]oxadiazol-5-yl]-piperidin-1-yl}-methanone] | 1 to 10
O=C(c1ccc(F)cc1)N1CCC[C@H](c2nc(-c3cnccn3)no2)C1 [Example 57, (4-Fluoro-phenyl)-[(S)-3-(3-pyrazin-2-yl-[1,2,4]oxadiazol-5-yl)-piperidin-1-yl]-methanone] | > 10
O=C(c1ccccn1)N1CCC[C@H](c2nc(-c3ccc(F)cc3)no2)C1 [Example 15, {(S)-3-[3-(4-Fluoro-phenyl)-[1,2,4]oxadiazol-5-yl]-piperidin-1-yl}-pyridin-2-yl-methanone hydrochloride] | 1 to 10
Cc1ccccc1C(=O)N1CCC[C@H](c2nc(-c3ccc(F)cc3)no2)C1 [Example 19, {(S)-3-[3-(4-Fluoro-phenyl)-[1,2,4]oxadiazol-5-yl]-piperidin-1-yl}-o-tolyl-methanone] | 1 to 10
COCc1oncc1C(=O)N1CCC[C@H](c2nc(-c3ccc(F)cc3)no2)C1 [Example 47, {(S)-3-[3-(4-Fluoro-phenyl)-[1,2,4]oxadiazol-5-yl]-piperidin-1-yl}-(5-methoxymethyl-isoxazol-4-yl)-methanone] | 1 to 10
Cc1ncc(-c2noc([C@H]3CCCN(C(=O)c4ccc(F)nc4)C3)n2)s1 [Example 73, (6-Fluoro-pyridin-3-yl)-{(S)-3-[3-(2-methyl-thiazol-5-yl)-[1,2,4]oxadiazol-5-yl]-piperidin-1-yl}-methanone] | > 10
Cc1nnsc1C(=O)N1CCC[C@H](c2nc(-c3ccc(F)cc3)no2)C1 [Example 13, {(S)-3-[3-(4-Fluoro-phenyl)-[1,2,4]oxadiazol-5-yl]-piperidin-1-yl}-(4-methyl-[1,2,3]thiadiazol-5-yl)-methanone] | 1 to 10
O=C(c1ccc(F)cc1)N1CCC[C@H](c2nc(-c3ccco3)no2)C1 [Example 35, (4-Fluoro-phenyl)-[(S)-3-(3-furan-2-yl-[1,2,4]oxadiazol-5-yl)-piperidin-1-yl]-methanone] | 1 to 10
Cc1ccccc1-c1noc([C@H]2CCCN(C(=O)c3ccc(F)cc3)C2)n1 [Example 48, (4-Fluoro-phenyl)-[(S)-3-(3-o-tolyl-[1,2,4]oxadiazol-5-yl)-piperidin-1-yl]-methanone] | > 10
Cc1cccc(-c2noc([C@H]3CCCN(C(=O)c4ccc(F)cc4)C3)n2)n1 [Example 33, (4-Fluoro-phenyl)-{(S)-3-[3-(6-methyl-pyridin-2-yl)-[1,2,4]oxadiazol-5-yl]-piperidin-1-yl}-methanone] | 1 to 10
O=C(c1ccc(F)cc1)N1CCC[C@H](c2nc(-c3ccsc3)no2)C1 [Example 38, (4-Fluoro-phenyl)-[(S)-3-(3-thiophen-3-yl-[1,2,4]oxadiazol-5-yl)-piperidin-1-yl]-methanone] | < 1
